Measured values reported in patent US20090092631A1, “GLYCOSYLATED SPECIFICITY EXCHANGERS THAT INDUCE AN ANTIBODY DEPENDENT CELLULAR CYTOTOXICITY (ADCC) RESPONSE” (priority 2007, published 2009).
Ends that are not written are not given here.

Key:
HIV-1 IIIB = assay: Neutralization assay (plaque-forming units/syncytia) in U87 cells expressing CD4 and co-receptor; type: cell-based
Description: Once it had been determined that the glycosylated specificity exchangers appreciably bound gp120 and human antibody, the antiviral activity of the glycosylated specificity exchangers was evaluated using a neutralization assay that is recognized in the art to reasonably predict the therapeutic efficacy of an HIV vaccine. (See Y. Shi et al., “A new cell line-based neutralization assay for primary HIV type 1 isolates,” AIDS Res Hum Retroviruses 18:957-967 (2002), herein expressly incorporated by reference in its entirety). By this approach, HIV infection of U87 cells that express CD4 and one of the major co-receptors (either CXCR4 or CCR5) were challenged with the glycosylated specificity exchangers and human serum during competition with the CD4 receptor. The infected cells form syncytia, that is, plaques, that were stained and enumerated by light microscopy. Neutralization was then determined by the ability of human serum and glycosylated specificity exchanger to reduce the number of plaque-forming units (PFU) relative to controls.
In brief, the U87 cells were seeded onto a 48 well plate at a concentration of 100,000 cell/well 1 day prior infection with HIV-1 IIIB. On the day of infection, glycosylated specificity exchangers (Seq. ID. Nos. 4-9), human serum and virus stock were diluted in culture medium and incubated in a separate 48 well plate, to a final dilution of 1:10/1:20 for the serum and an appropriate concentration of the virus, according to the titration. The glycosylated specificity exchangers were analyzed at different concentrations to determine the minimal amount required for antiviral activity. The glycosylated specificity exchanger-serum-virus mixture was kept at 37° C. for 1 hr. Then, two hundred microliters of each dilution was distributed into wells containing the U87/CD4 cells. The experiment was performed in quadruplicate in the same plate and in five separate plates.
Controls for the assay included glycosylated specificity exchanger without the coupled sugar, the glycosylated specificity exchanger (coupled with the sugar) and a 1:10/1:20 dilution of heat inactivated human serum, cells and medium only, and cells and medium and serum. […]

HIV IIIB virus [1] = assay: Syncytia inhibition (plaque) assay on U87 CD4+-CXCR4+ cells; type: cell-based, HIV-1; settings: for neutralization values (ranking): non-inactivated human sera (FIGS. 12H and 12I); for neutralization (comparison among glycopeptides): plaque assay U87, single round TZMbl and H9 infectivity assays, HIV IIIB, inactivated human serum
Description: The CD4 glycopeptides were studied for inhibition of cell to cell interactions in a plaque assay system using U87 cells (FIG. 7), in a single round infectivity assay with TZMbl cells (FIG. 7) and in an infectivity assay with H9 cells, wherein multiple rounds of replication were allowed (FIG. 8). Infectivity was performed with the HIV IIIB virus and inactivated human serum from healthy individuals was used as the source of the anti-gal antibody.
Neutralization was tested based on the prevention of syncytia formation by HIV-1 infection of adherent U87 glioma cells expressing the CD4 receptor and the CXCR4 co-receptor, previously described by Shi Y, et al., (2002) A new cell line-based neutralization assay for primary HIV type 1 isolates. AIDS Res Hum Retroviruses 18:957-967, herein expressly incorporated by reference in its entirety.
Cells were seeded into 48 well plates (Costar, Corning USA) at a concentration of 10^5 cell/well one day prior to infection. On the day of infection, glycopeptides, pooled AB type human serum from healthy individuals (Cambrex, USA) and previously titrated HIV IIIB virus were diluted in culture medium and pre-incubated in a separate 48 well plate for 1 h at 37° C. The peptides were analyzed at different concentrations to evaluate the minimum dose required for antiviral activity. Two hundred microliters of each dilution were distributed into triplicate wells containing the U87 CD4^+-CXCR4^+ cells and incubated for 12 h after which medium was removed and 1 ml of D-MEM medium was added to the cells. The positive controls were infected cells in the presence or absence of human serum and negative controls consisted of uninfected cells in the presence or absence of human serum and an irrelevant glycosylated peptide. At day five the cells were fixated with methanol-acetone (1:1). The number of plaque-forming units was determined after haematoxylin staining and the index was extracted from the ratio between infected cells treated with the peptides and human serum and cells infected with the virus in the presence of human serum. Each peptide was tested at four different concentrations, in quadruplicates in the same plate and in five different plates, i.e. each peptide was run in twenty wells at each concentration.

HIV IIIB virus [2] = assay: Multiple round infectivity assay in H9 cells (RT activity, day 11); type: cell-based, HIV-1; settings: 1 μg/ml glycopeptide, 5 or 10% human serum
Description: An infectivity assay was performed on H9 cells that were infected with HIV IIIB virus. All peptides were run at four different dilutions and each dilution was run in quadruplicates together with a 10% or 5% of pooled AB human serum from healthy individuals. (Cambrex, USA).
H9 cells were infected with 100 TCID50 of the HIV IIIB virus and incubated for 1.5 h at 37° C. after which they were centrifuged, the supernatant was discarded and the cells were re-suspended in RPMI medium for a final concentration of 200,000 cells/ml.
One 48 well plate was run per glycopeptide, containing the four dilutions of the glycopeptide and the four replicates of each one of them, plus a positive control of infected cells (with and without human serum) and a negative control of non-infected H9 cells. Each well contained 500 μl of the infected cells +500 μl of the diluted peptide and the chosen dilution of the human serum.
Plates were incubated at 37° C.+5% CO2 until day 7 when 500 μl of supernatant were collected from each well and stored at −20 degrees until further analysis. An additional 500 μl of fresh RPMI medium with the appropriate dilution of the peptide plus the human serum were added to the wells and incubated at 37 degrees until day 11 when the supernatant was measured for Reverse Transcriptase (RT) activity (Cavidi, Sweden) according to the manufacturer's protocol.

[3] = tested on: human Gal-alpha1,3-Gal-specific antibodies; assay: Glycosylated peptide competitive assay on Gal-BSA coated plates with human sera IB72; type: binding; settings: mixed with human sera, positive control
Description: To further evaluate the ability of the glycosylated specificity exchangers to bind to a pathogen, a glycosylated peptide competitive assay was performed using the most reactive human sera (IB72). In brief, Gal-alpha-1,3-Gal-labeled bovine serum albumin (Gal-BSA) was coated onto 96-well microplates in sodium carbonate buffer (pH: 9.6) at +4° C. overnight. Dilutions of human sera and dilutions of glyco-peptides (glycosylated HIV-specific ligand/receptor specificity exchangers or Gal-BSA) or non-glycosylated peptides (HIV-specific ligand/receptor specificity exchangers or BSA) were preincubated in phosphate-buffered saline (PBS) containing 1% bovine albumin, 2% goat serum and 0.05% Tween 20 at 37° C. for 1 h. The mixture was then added to the coated plates and incubated at 37° C. for 1 h, then washed 3 times with phosphate-buffered saline (PBS) containing 0.05% Tween 20 (pH: 7.4).
Bound antibodies were indicated with goat anti-human polyvalent Ig, conjugated with alkaline phosphatase. The plates were incubated and washed as described above. Plates were developed with phosphatase substrate at room temperature for 30 min, stopped with 1 M NaOH. Optical density (OD) at 405 nm/650 nm was determined to quantify the inhibition. […] Thus, specificity exchangers that bind Gal-alpha1,3-Gal-specific antibodies had been generated. […]

[4] = CD4 peptide Alone (without coupled sugar), 0.1 ug/ml, 0.3 equals 30% inhibition
[5] = CD4 peptide Alone (without coupled sugar), 1 ug/ml, 0.3 equals 30% inhibition
[6] = CD4 peptide Alone (without coupled sugar), 10 ug/ml, 0.3 equals 30% inhibition of HIV replication (syncytia formation)
[7] = Glycosylated Sp. Exchanger & 1:10 dilution human serum, 0.1 ug/ml, 0.3 equals 30% inhibition
[8] = Glycosylated Sp. Exchanger & 1:10 dilution human serum, 1 ug/ml, 0.3 equals 30% inhibition
[9] = Glycosylated Sp. Exchanger & 1:10 dilution human serum, 10 ug/ml, 0.3 equals 30% inhibition
[10] = Glycosylated Sp. Exchanger & 1:20 dilution human serum, 0.1 ug/ml, 0.3 equals 30% inhibition
[11] = Glycosylated Sp. Exchanger & 1:20 dilution human serum, 1 ug/ml, 0.3 equals 30% inhibition
[12] = Glycosylated Sp. Exchanger & 1:20 dilution human serum, 10 ug/ml, 0.3 equals 30% inhibition
[13] = Glycosylated Sp. Exchanger, 0.1 ug/ml, 0.3 equals 30% inhibition
[14] = Glycosylated Sp. Exchanger, 1 ug/ml, 0.3 equals 30% inhibition
[15] = Glycosylated Sp. Exchanger, 10 ug/ml, 0.3 equals 30% inhibition

Row | Substance | neutralization of the virus (HIV-1 IIIB; [4]) | neutralization of the virus (HIV-1 IIIB; [5]) | neutralization of the virus (HIV-1 IIIB; [6]) | neutralization of the virus (HIV-1 IIIB; [7]) | neutralization of the virus (HIV-1 IIIB; [8]) | neutralization of the virus (HIV-1 IIIB; [9]) | neutralization of the virus (HIV-1 IIIB; [10]) | neutralization of the virus (HIV-1 IIIB; [11]) | neutralization of the virus (HIV-1 IIIB; [12]) | neutralization of the virus (HIV-1 IIIB; [13]) | neutralization of the virus (HIV-1 IIIB; [14]) | neutralization of the virus (HIV-1 IIIB; [15]) | neutralization values (ranking) (HIV IIIB virus [1]) | neutralization (comparison among glycopeptides) (HIV IIIB virus [1]) | neutralization (HIV IIIB virus [2]) [%] | inhibition of human antibody binding to Gal-BSA [3] [%]
1 | QGSFLTKGPSKLNDR ({Gal‑α1‑3Gal‑β glyco‑aspartic acid}-QGSFLTKGPSKLNDR) [Seq. Id. No. 7, CD4 receptor peptide with Gal-α1-3Gal-β glyco-aspartic acid linked to its N-terminal end] | neg (Neg = negative <0.30) | neg (Neg = negative <0.30) | neg (Neg = negative <0.30) | 0.48 | 0.48 | 0.55 | 0.47 | 0.47 | 0.48 | neg (Neg = negative <0.30) | neg (Neg = negative <0.30) | neg (Neg = negative <0.30) | Highest neutralization values | greater neutralization | 90 | 
2 | KILGNQGSFLTKGPS ({Gal‑α1‑3Gal‑β glyco‑aspartic acid}-KILGNQGSFLTKGPS) [Seq. Id. No. 6, CD4 receptor peptide with Gal-α1-3Gal-β glyco-aspartic acid linked to its N-terminal end] |  |  |  |  |  |  |  |  |  |  |  |  | Highest neutralization values | greater neutralization | 90 | 
3 | TKGPSKLNDRADSRR ({Gal‑α1‑3Gal‑β glyco‑aspartic acid}-TKGPSKLNDRADSRR) [Seq. Id. No. 8, CD4 receptor peptide with Gal-α1-3Gal-β glyco-aspartic acid linked to its N-terminal end] | neg (Neg = negative <0.30) | neg (Neg = negative <0.30) | neg (Neg = negative <0.30) | neg (Neg = negative <0.30) | 0.39 | 0.49 | neg (Neg = negative <0.30) | 0.32 | 0.429 | neg (Neg = negative <0.30) | neg (Neg = negative <0.30) | neg (Neg = negative <0.30) | Highest neutralization values | greater neutralization | 90 | 
4 | Gal-alpha-1,3-Gal-labeled bovine serum albumin [Gal-BSA] |  |  |  |  |  |  |  |  |  |  |  |  |  |  |  | 100
